In patent US8796301B2, “Therapeutic or prophylactic agent for dyskinesia” (Toray Industries, Inc., priority 2007, dated 2014):

Key:
[1] = test system: L-DOPA-induced dyskinesia in a rat model of Parkinson's disease; test: L-DOPA-induced dyskinesia in a rat model of Parkinson's disease (6-hydroxydopamine lesion), dyskinesia score; format: in vivo
dyskinesia = settings: WO00/003715; cited from earlier work

Structure (SMILES)	effect on L-DOPA-induced dyskinesia (dyskinesia score vs control score) ([1]; 10 μg/kg subcutaneous, simultaneously with L-DOPA 20 mg/kg oral, FIG. 1)	effect on L-DOPA-induced dyskinesia (dyskinesia score vs control score) ([1]; 10 mg/kg subcutaneous, with L-DOPA 20 mg/kg oral, FIG. 2, FIG. 3, FIG. 4)	effect on L-DOPA-induced dyskinesia (dyskinesia score vs control score) ([1]; 30 mg/kg subcutaneous, with L-DOPA 20 mg/kg oral, FIG. 4)	effect on dyskinesia (dyskinesia)
CN(C(=O)/C=C/c1ccoc1)[C@@H]1CC[C@@]2(O)[C@H]3Cc4ccc(O)c5c4[C@@]2(CCN3CC2CC2)[C@H]1O5.Cl [Compound 1, (−)-17-(cyclopropylmethyl)-3,14β-dihydroxy-4,5α-epoxy-6β-[N-methyl-trans-3-(3-furyl)acrylamido]morphinan hydrochloride]	significantly suppressed dyskinesia			
COC(=O)/C=C/C(=O)N[C@@H]1CC[C@@]2(O)[C@H]3Cc4ccc(O)c5c4[C@@]2(CCN3CC2CC2)[C@H]1O5 [β-funaltrexamine]		did not influence L-DOPA-induced dyskinesia at all	did not influence L-DOPA-induced dyskinesia at all	suppresses dyskinesia
